Source: patent EP0421419A2, “Tocotrienols in the treatment of hypercholesterolemia, hyperlipidemia and thromboembolic disorders” (Bristol-Myers Squibb Company, priority 1989, dated 1991)

Key:
[1] = tested on: Cholesterol Synthesis in HepG2 Cells; assay: HepG2 cell culture model, 14C-acetate incorporation assay; type: cell-based, human; details: Homo sapiens, HepG2; 10 µM, about 4 hours; read-out: % Inhibition 14C-Ac
Procedure: HepG2 cells obtained from the American Type Culture Collection were routinely passaged in RPMI-1640 plus 10% fetal bovine serum (FBS) and were subcultured into 35 mm diameter wells for experiments. […] The LDS medium supplement was prepared according to Cham et al., J. Lipid Res., 17: 176-181, (1976). After about 16 hours in LDS containing media, test compounds were added in dimetthylsulfoxide vehicle (0.5% v/v final conc.) for the period of time indicated in the data (generally 4 hours). Cholesterol synthesis was then directly determined by the incorporation of 2-14C-acetate (1.8-3.0 mCi/mmol) into digitonin-precipitable sterols essentially as described for the rat hepatocyte methol above. Greater than 97% of the radiolabelled sterol isolated by this procedure was cholesterol as judged by HPLC. Percent inhibition was calculated from the average of duplicates or triplicates vs. controls receiving vehicle.
(§1) The human hepatoma HepG2 cell culture model was employed to compare the intrinsic activities of the tocotrienols. HepG2 cells were incubated with the indicated compounds for about 4 hours at 10 µM. Cholestrol synthesis was assayed by 14C-acetate incorporation and HMG-CoA reductase suppression was assayed in the isolated microsomal fraction. Cholesterol synthesis inhibition was assayed by 14C-acetate incorporation after preincubation of HepG2 cells with the compounds for about 2 hours or about 4 hours (Example IV). […] As the data in Figure 1 indicate, gamma-tocotrienol has an even greater relative potency compared to alpha-tocotrienol in the HepG2 cell model than in rat hepatocytes. The IC50s from these studies are given in Table 3, in which it can be seen that the intrinsic potency of gamma-tocotrienol is over 30-fold greater than that of alpha-tocotrienol.

Lipid Metabolism [2] = assay: Lipid metabolism in normocholesterolemic chickens fed compound in diet; type: in vivo; details: 20 ppm in corn control diet, 4 weeks; for HDL/LDL: control 1.413; for LDL-Cholesterol: control 76.0(±5.3); for HDL-Cholesterol: control 107.4(±7.0); for Serum Triglycerides: control 115.2(±13); for Serum Cholesterol: control 197.0(±5.2)
Procedure: (§2) Natural gamma-tocotrienol and delta-tocotrienol were evaluated for their hypocholesterolemic action in normocholesterolemic chickens and genetically hypercholesterolemic swine. Newborn male chicks (10 for each group) were raised on a standard corn-soybean-based control diet for two weeks and then were switched to either control or experimental diets for four weeks. Drug treatment consisted of the addition of gamma-tocotrienol or delta-tocotrienol to the corn-soybean-based diet at a concentration of 20 ppm. At the end of the feeding period, all the birds were fasted (about 36 hours) and refed (about 48 hours) to induce cholesterolgenic emzymes prior to sacrifice. The specific activity of HMG-CoA reductase, total serum cholesterol levels, HDL/LDL cholesterol pools, and serum triglyceride levels were examined (Table 5).
Similarly, synthetic gamma-tocotrienol was administered to male chicks at 50 ppm using the same protocol except HMG-CoA reductase levels were not determined.

HMG-CoA reductase [3] = assay: HMG-CoA reductase specific activity in chickens fed compound in diet; type: in vivo; details: 20 ppm in corn control diet, 4 weeks; for HMG-CoA Reductase Specific Acticity: 6-week old male chickens, control 1086.9(±114.0)
Procedure: as §2

Lipid Metabolism [4] = assay: Lipid metabolism in genetically hypercholesterolemic swine fed compound in diet; type: in vivo; details: 4 weeks; for Serum Cholesterol: 75 ppm in corn-soybean meal control diet, control 406.7(±12.8); for HDL-Cholesterol [% of Control] / LDL-Cholesterol [% of Control] / Serum Cholesterol [% of Control] / Serum Triglycerides [% of Control] / HDL/LDL / HDL-Cholesterol / Serum Triglycerides / LDL-Cholesterol: 75 ppm in diet; for HDL/LDL: control 0.078; for HDL-Cholesterol: control 28.8(±1.1); for Serum Triglycerides: control 67.9(±2.8); for LDL-Cholesterol: control 367.1(±15.7)
Description: Genetically hypercholesterolemic swine (3 per group) were fed for four weeks on either a standard corn-soybean-based control diet or an experimental diet. The experimental diet consisted of the standard mix containing either gamma-tocotrienol or delta-tocotrienol at 75 ppm. The same protocol used for the chicken study was used for the swine group, except HMG-CoA reductase levels were not determined in this case. […] The HDL/LDL atherogenic index as before improved dramatically with drug treatment (Table 7).

HMG-CoA reductase [5] = assay: HepG2 cell culture model, HMG-CoA reductase suppression assay; type: cell-based, human; details: 10 µM, about 4 hours, HepG2 cells
Procedure: HMG-CoA reductase suppression in HepG2 cells was conducted by growing cells in RPMT-1640 plus 10% FBS on 100 mm plates, and when cells reached approximately 75% confluency, inducing with LDS (as described above) for about 16 hours prior to assays. Compounds were added using dimethylsulfoxide vehicle (0.5% v/v, final) and after about 4 hours of incubation at 37°, cells were harvested by scraping. Cell pellets were rinsed and lysed by sonication in 1.7 ml cold 50 mM imidazole-HCL, pH 7.2, 50 mM NaCl, 10 mM EDTA, 10 mM EGTA, 5 mM DTT, and 40µM leupeptin). Lysates were centriguged at 150 x g and the supernatant was centrifuged at 100,000 x g in a Beckman airfuge to isolate the post-nuclear total membrane fraction. The membranes were resuspended in 50 mM imidazole-HCl, pH 7.2, 250 mM NaCl, 5 mM DTT, and 20µM leupeptin and used for the assay of HMG-CoA reductase activity by the radiochemical procedure as described previously by Parker et al., J. Biol. Chem., 264: 4877-4887, (1989). Values were normalized for protein content by the Lowry method as cited previously (ibid). HMG-CoA reductase percent suppression was calculated as the decrease in specific activity of HMG-CoA reductase for treated cells vs. controls receiving vehicle. Averages of duplicate cell determinations assayed in duplicate were taken.
as §1
The mechanism of cholesterol synthesis inhibition by tocotrienols involves down regulation of the limiting enzyme of sterol synthesis, HMG-CoA reductase. […] The suppression of HMG-CoA reductase protein expression by gamma-tocotrienol and delta-tocotrienol in HepG2 cells and in rat liver has been confirmed by immunoassy using the Western blot technique (data not shown).

| SMILES | inhibition at 10 µM [1] | HDL-Cholesterol [% of Control] (Lipid Metabolism [2]) | LDL-Cholesterol [% of Control] (Lipid Metabolism [2]) | Serum Cholesterol [% of Control] (Lipid Metabolism [2]) | Serum Triglycerides [% of Control] (Lipid Metabolism [2]) | HDL/LDL (Lipid Metabolism [2]) | LDL-Cholesterol (Lipid Metabolism [2]) | HDL-Cholesterol (Lipid Metabolism [2]) | Serum Triglycerides (Lipid Metabolism [2]) | Serum Cholesterol (Lipid Metabolism [2]) | HMG-CoA Reductase Specific Acticity [% of Control] (HMG-CoA reductase [3]) | HMG-CoA Reductase Specific Acticity (HMG-CoA reductase [3]) | Serum Cholesterol (Lipid Metabolism [4]) | HDL-Cholesterol [% of Control] (Lipid Metabolism [4]) | LDL-Cholesterol [% of Control] (Lipid Metabolism [4]) | Serum Cholesterol [% of Control] (Lipid Metabolism [4]) | Serum Triglycerides [% of Control] (Lipid Metabolism [4]) | HDL/LDL (Lipid Metabolism [4]) | HDL-Cholesterol (Lipid Metabolism [4]) | Serum Triglycerides (Lipid Metabolism [4]) | further results |
| --- | --- | --- | --- | --- | --- | --- | --- | --- | --- | --- | --- | --- | --- | --- | --- | --- | --- | --- | --- | --- | --- |
| CC(C)=CCC/C(C)=C/CC/C(C)=C/CC[C@]1(C)CCc2cc(O)cc(C)c2O1 [d-δ-tocotrienol] | 79% | 91.9% | 53.7% | 71.5% | 77.0% | 2.419 | 40.8(±6.6) mg/dl | 98.7(±8.4) mg/dl | 88.7(±7.3) mg/dl | 140.9(±3.1) mg/dl | 50.6% | 550.2(±33.8) | 214.9(±18.6 mg/dl | 105.3% | 44.8% | 47.7% | 70.3% | 0.189 | 34.4(±1.9) mg/dl | 44.4(±1.3) mg/dl | LDL-Cholesterol (Lipid Metabolism [4]): 182.2(±8.2) mg/dl; % Suppression HMG-CoA Reductase (HMG-CoA reductase [5]): 65% |
| CC(C)=CCC/C(C)=C/CC/C(C)=C/CC[C@]1(C)CCc2cc(O)c(C)c(C)c2O1 [d-γ-tocotrienol] | 78% | 95.3% | 56.7% | 76.4% | 82.8% | 1.669 | 43.1(±8.3) mg/dl | 102.3(±4.5) mg/dl | 95.4(±5.9) mg/dl | 150.5(±4.2) mg/dl | 45.5% | 494.2(±22.9) | 212.8(±9.0) mg/dl | 104.5% | 46.0% | 51.3% | 76.4% | 0.172 | 29.8(±2.9) mg/dl | 50.9(±3.1) mg/dl | LDL-Cholesterol (Lipid Metabolism [4]): 172.8(±7.1) mg/dl; % Suppression HMG-CoA Reductase (HMG-CoA reductase [5]): 64% |
